Source: patent US9340590B2 (priority 2011, dated 2016)
pIC50: −log10 of the molar value. Where two headings read alike, the source gives them in different places. Positions of bridges follow the written chain, without caps; N, C: chain ends. Residues, ends and D or L forms follow the SMILES beside them.

Target: hNav1.7 (Homo sapiens, UniProt Q15858)
Assay: cell-based
Format: cell-based
Settings: IonWorks Quattro

Chain of hNav1.7 (Q15858 whole entry, looked up): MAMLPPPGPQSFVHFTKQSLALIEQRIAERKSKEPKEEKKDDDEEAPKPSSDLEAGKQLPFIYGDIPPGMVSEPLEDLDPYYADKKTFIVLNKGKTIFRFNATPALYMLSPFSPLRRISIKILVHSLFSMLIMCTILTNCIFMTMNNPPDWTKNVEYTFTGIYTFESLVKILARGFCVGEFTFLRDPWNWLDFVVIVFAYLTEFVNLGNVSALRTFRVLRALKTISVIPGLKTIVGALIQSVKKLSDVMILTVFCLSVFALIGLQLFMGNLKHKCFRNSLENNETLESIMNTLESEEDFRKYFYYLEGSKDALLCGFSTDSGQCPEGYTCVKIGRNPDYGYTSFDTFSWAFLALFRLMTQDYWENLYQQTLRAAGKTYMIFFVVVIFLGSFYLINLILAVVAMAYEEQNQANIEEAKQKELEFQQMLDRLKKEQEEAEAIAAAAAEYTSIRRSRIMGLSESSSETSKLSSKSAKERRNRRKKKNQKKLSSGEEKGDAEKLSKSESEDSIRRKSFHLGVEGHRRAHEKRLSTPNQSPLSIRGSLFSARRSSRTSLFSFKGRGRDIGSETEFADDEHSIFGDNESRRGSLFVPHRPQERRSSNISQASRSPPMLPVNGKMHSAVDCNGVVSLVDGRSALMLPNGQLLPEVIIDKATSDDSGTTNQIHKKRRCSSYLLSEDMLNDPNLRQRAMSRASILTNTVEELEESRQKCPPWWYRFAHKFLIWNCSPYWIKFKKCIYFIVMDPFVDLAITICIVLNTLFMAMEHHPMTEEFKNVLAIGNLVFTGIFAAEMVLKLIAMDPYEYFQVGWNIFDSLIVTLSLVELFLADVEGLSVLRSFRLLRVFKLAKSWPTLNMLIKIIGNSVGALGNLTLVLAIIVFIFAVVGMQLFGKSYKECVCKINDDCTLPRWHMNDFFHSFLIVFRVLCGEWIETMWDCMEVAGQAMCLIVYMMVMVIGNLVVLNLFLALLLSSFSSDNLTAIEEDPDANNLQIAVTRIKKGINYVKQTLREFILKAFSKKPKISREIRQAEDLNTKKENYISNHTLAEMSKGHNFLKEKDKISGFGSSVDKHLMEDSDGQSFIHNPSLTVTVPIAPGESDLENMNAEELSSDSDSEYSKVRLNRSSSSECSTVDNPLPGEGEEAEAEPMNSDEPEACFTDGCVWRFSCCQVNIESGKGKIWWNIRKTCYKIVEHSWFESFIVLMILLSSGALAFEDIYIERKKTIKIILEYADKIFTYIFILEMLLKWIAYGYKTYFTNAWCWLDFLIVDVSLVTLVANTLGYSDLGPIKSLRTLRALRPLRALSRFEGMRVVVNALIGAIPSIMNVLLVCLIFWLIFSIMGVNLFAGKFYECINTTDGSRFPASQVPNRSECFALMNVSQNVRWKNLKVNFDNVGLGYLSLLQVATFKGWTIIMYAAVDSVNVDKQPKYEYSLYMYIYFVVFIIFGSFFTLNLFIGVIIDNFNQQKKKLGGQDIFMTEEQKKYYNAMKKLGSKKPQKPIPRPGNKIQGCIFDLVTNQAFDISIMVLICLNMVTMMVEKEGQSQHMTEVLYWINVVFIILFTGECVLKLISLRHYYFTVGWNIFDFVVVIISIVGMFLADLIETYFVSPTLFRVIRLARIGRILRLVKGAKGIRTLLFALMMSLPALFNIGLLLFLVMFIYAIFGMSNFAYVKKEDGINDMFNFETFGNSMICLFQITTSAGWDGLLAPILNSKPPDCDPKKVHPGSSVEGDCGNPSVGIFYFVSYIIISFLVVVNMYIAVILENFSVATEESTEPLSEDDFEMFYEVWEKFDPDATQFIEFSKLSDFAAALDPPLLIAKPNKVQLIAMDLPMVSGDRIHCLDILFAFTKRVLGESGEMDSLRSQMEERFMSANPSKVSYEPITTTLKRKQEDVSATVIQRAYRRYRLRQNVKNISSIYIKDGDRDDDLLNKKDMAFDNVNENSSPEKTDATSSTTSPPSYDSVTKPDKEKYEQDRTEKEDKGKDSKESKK

Row | SMILES | pIC50 (Use, read-out: IWQ Use Nav1.7) | other results
1 | CC[C@H](C)[C@@H]1NC(=O)[C@@H]2CSSC[C@@H]3NC(=O)[C@H](C(C)C)NC(=O)[C@H](CC(C)C)NC(=O)[C@H](CC(N)=O)NC(=O)[C@@H]4CCCN4C(=O)[C@H](CCCNC(=N)N)NC(=O)[C@H](CSSC[C@H](NC(=O)[C@@H](N)CC(=O)O)C(=O)N[C@@H](CC(C)C)C(=O)NCC(=O)N[C@@H](Cc4ccccc4)C(=O)N[C@@H](CCSC)C(=O)N[C@@H](CCCNC(=N)N)C(=O)N[C@@H](CCCCN)C(=O)N2)NC(=O)[C@H](CSSC[C@@H](C(=O)N[C@@H](CCCCN)C(=O)N[C@@H](Cc2ccc(O)cc2)C(=O)N[C@H](C(N)=O)C(C)C)NC(=O)[C@H](Cc2c[nH]c4ccccc24)NC(=O)[C@H](CCCCN)NC(=O)[C@H](Cc2c[nH]cn2)NC(=O)[C@H]([C@@H](C)O)NC(=O)[C@H](CCCNC(=N)N)NC(=O)[C@H](CO)NC3=O)NC(=O)[C@H](CCCCN)NC(=O)[C@H](CC(=O)O)NC(=O)[C@H](CC(N)=O)NC(=O)[C@H](CC(=O)O)NC(=O)[C@@H]2CCCN2C1=O [compound 415] (H-DCLGFMRKCIPDNDKCCRPNLVCSRTHKWCKYV-NH2; disulfide 2-17, 9-23, 16-30) | – | pIC50 (use-dependent, […], read-out: IWQ Use Nav1.7 (μm)): 5.63
2 | CC[C@H](C)[C@@H]1NC(=O)[C@@H]2CSSC[C@@H]3NC(=O)[C@H](C(C)C)NC(=O)[C@H](CC(C)C)NC(=O)[C@H](CC(N)=O)NC(=O)[C@@H]4CCCN4C(=O)[C@H](CCCNC(=N)N)NC(=O)[C@H](CSSC[C@H](NC(=O)[C@@H](N)CC(=O)O)C(=O)N[C@@H](CC(C)C)C(=O)NCC(=O)N[C@@H](Cc4ccccc4)C(=O)N[C@@H](CCSC)C(=O)N[C@@H](CCCNC(=N)N)C(=O)N[C@@H](CCCCN)C(=O)N2)NC(=O)[C@H](CSSC[C@@H](C(=O)N[C@@H](CCCCN)C(=O)N[C@@H](Cc2ccc(O)cc2)C(=O)N[C@H](C(=O)N[C@@H](Cc2ccccc2)C(N)=O)C(C)C)NC(=O)[C@H](Cc2c[nH]c4ccccc24)NC(=O)[C@H](CCCCN)NC(=O)[C@H](Cc2c[nH]cn2)NC(=O)[C@H]([C@@H](C)O)NC(=O)[C@H](CCCNC(=N)N)NC(=O)[C@H](C)NC3=O)NC(=O)[C@H](CCCCN)NC(=O)[C@H](CC(=O)O)NC(=O)[C@H](CC(N)=O)NC(=O)[C@H](CC(=O)O)NC(=O)[C@@H]2CCCN2C1=O [compound 142] (H-DCLGFMRKCIPDNDKCCRPNLVCARTHKWCKYVF-NH2; disulfide 2-17, 9-23, 16-30) | 6.33 | –
3 | CC[C@H](C)[C@@H]1NC(=O)[C@@H]2CSSC[C@@H]3NC(=O)[C@H](CCCNC(=N)N)NC(=O)[C@H](CC(C)C)NC(=O)[C@H](CC(N)=O)NC(=O)[C@@H]4CCCN4C(=O)[C@H](CCCNC(=N)N)NC(=O)[C@H](CSSC[C@H](NC(=O)[C@@H](N)CC(=O)O)C(=O)N[C@@H](CC(C)C)C(=O)NCC(=O)N[C@@H](Cc4ccccc4)C(=O)N[C@@H](CCSC)C(=O)N[C@@H](CCCNC(=N)N)C(=O)N[C@@H](CCCCN)C(=O)N2)NC(=O)[C@H](CSSC[C@@H](C(=O)N[C@@H](CCCCN)C(=O)N[C@@H](Cc2ccc(O)cc2)C(=O)N[C@H](C(=O)N[C@@H](Cc2ccccc2)C(N)=O)C(C)C)NC(=O)[C@H](Cc2c[nH]c4ccccc24)NC(=O)[C@H](CCCCN)NC(=O)[C@H](Cc2c[nH]cn2)NC(=O)[C@H]([C@@H](C)O)NC(=O)[C@H](CCCNC(=N)N)NC(=O)[C@H](CO)NC3=O)NC(=O)[C@H](CCCCN)NC(=O)[C@H](CC(=O)O)NC(=O)[C@H](CC(N)=O)NC(=O)[C@H](CC(=O)O)NC(=O)[C@@H]2CCCN2C1=O [compound 158] (H-DCLGFMRKCIPDNDKCCRPNLRCSRTHKWCKYVF-NH2; disulfide 2-17, 9-23, 16-30) | 7.22 | –
4 | CC[C@H](C)[C@@H]1NC(=O)[C@@H]2CSSC[C@@H]3NC(=O)[C@H](C(C)C)NC(=O)[C@H](CC(C)C)NC(=O)[C@H](CC(N)=O)NC(=O)[C@@H]4CCCN4C(=O)[C@H](CCCNC(=N)N)NC(=O)[C@H](CSSC[C@H](NC(=O)[C@@H](N)CC(=O)O)C(=O)N[C@@H](CC(C)C)C(=O)N[C@@H](CCC(=O)O)C(=O)N[C@@H](Cc4ccccc4)C(=O)N[C@@H](CCSC)C(=O)N[C@@H](CCCNC(=N)N)C(=O)N[C@@H](CCCCN)C(=O)N2)NC(=O)[C@H](CSSC[C@@H](C(=O)N[C@@H](CCCCN)C(=O)N[C@@H](Cc2ccc(O)cc2)C(=O)N[C@H](C(=O)N[C@@H](Cc2ccccc2)C(N)=O)C(C)C)NC(=O)[C@H](Cc2c[nH]c4ccccc24)NC(=O)[C@H](CCCCN)NC(=O)[C@H](Cc2c[nH]cn2)NC(=O)[C@H]([C@@H](C)O)NC(=O)[C@H](CCCNC(=N)N)NC(=O)[C@H](CO)NC3=O)NC(=O)[C@H](CCCCN)NC(=O)[C@H](CC(=O)O)NC(=O)[C@H](CC(N)=O)NC(=O)[C@H](CC(=O)O)NC(=O)[C@@H]2CCCN2C1=O [SEQ ID NO: 24] (H-DCLEFMRKCIPDNDKCCRPNLVCSRTHKWCKYVF-NH2; disulfide 2-17, 9-23, 16-30) | – | pIC50 (clamped to −110 mV, depolarized to −10 mV, 5 min after compound, n=2, read-out: IWQ Use Nav1.7): 5.76
5 | CSCC[C@@H]1NC(=O)[C@H](Cc2ccccc2)NC(=O)CNC(=O)[C@H](CC(C)C)NC(=O)[C@@H](NC(=O)[C@@H](N)CC(=O)O)CSSC[C@@H]2NC(=O)[C@@H]3CSSC[C@@H](C(=O)N[C@@H](CCCCN)C(=O)N[C@@H](Cc4ccc(O)cc4)C(=O)N[C@H](C(=O)N[C@@H](Cc4ccccc4)C(N)=O)C(C)C)NC(=O)[C@H](Cc4c[nH]c5ccccc45)NC(=O)[C@H](CCCCN)NC(=O)[C@H](Cc4c[nH]cn4)NC(=O)[C@H]([C@@H](C)O)NC(=O)[C@H](CCCNC(=N)N)NC(=O)[C@H](CO)NC(=O)[C@H](CSSC[C@H](NC(=O)[C@H](CCCCN)NC(=O)[C@H](CCCNC(=N)N)NC1=O)C(=O)N[C@@H](Cc1ccc(O)cc1)C(=O)N1CCC[C@H]1C(=O)N[C@@H](CC(=O)O)C(=O)N[C@@H](CC(N)=O)C(=O)N[C@@H](CC(=O)O)C(=O)N[C@@H](CCCCN)C(=O)N3)NC(=O)[C@H](C(C)C)NC(=O)[C@H](CC(C)C)NC(=O)[C@H](CC(N)=O)NC(=O)[C@@H]1CCCN1C(=O)[C@H](CCCNC(=N)N)NC2=O [compound 299] (H-DCLGFMRKCYPDNDKCCRPNLVCSRTHKWCKYVF-NH2; disulfide 2-17, 9-23, 16-30) | 6.85 | –
6 | CC[C@H](C)[C@@H]1NC(=O)[C@@H]2CSSC[C@@H]3NC(=O)[C@H](C(C)C)NC(=O)[C@H](CC(C)C)NC(=O)[C@H](CC(N)=O)NC(=O)[C@H](CCCNC(=N)N)NC(=O)[C@H](CCCNC(=N)N)NC(=O)[C@H](CSSC[C@H](NC(=O)[C@@H](N)CC(=O)O)C(=O)N[C@@H](CC(C)C)C(=O)NCC(=O)N[C@@H](Cc4ccccc4)C(=O)N[C@@H](CCSC)C(=O)N[C@@H](CCCNC(=N)N)C(=O)N[C@@H](CCCCN)C(=O)N2)NC(=O)[C@H](CSSC[C@@H](C(=O)N[C@@H](CCCCN)C(=O)N[C@@H](Cc2ccc(O)cc2)C(=O)N[C@H](C(=O)N[C@@H](Cc2ccccc2)C(N)=O)C(C)C)NC(=O)[C@H](Cc2c[nH]c4ccccc24)NC(=O)[C@H](CCCCN)NC(=O)[C@H](Cc2c[nH]cn2)NC(=O)[C@H]([C@@H](C)O)NC(=O)[C@H](CCCNC(=N)N)NC(=O)[C@H](CO)NC3=O)NC(=O)[C@H](CCCCN)NC(=O)[C@H](CC(=O)O)NC(=O)[C@H](CC(N)=O)NC(=O)[C@H](CC(=O)O)NC(=O)[C@@H]2CCCN2C1=O [compound 157] (H-DCLGFMRKCIPDNDKCCRRNLVCSRTHKWCKYVF-NH2; disulfide 2-17, 9-23, 16-30) | 7.15 | –
